The record followed here is US20180071354A1, “SELECTIVE BREEDING METHOD OF ANTITUMOR/ANTICANCER CAMELLIA SINENSIS STRAIN, AND TEA PRODUCT OF SUCH STRAIN” (FUJIAN AGRICULTURE AND FORESTRY UNIVERSITY, priority 2015, published 2018).

Holding throughout (format): cell-based
In test [1] the test system is human ovarian cancer cell line SK-OV-3. The experiment in a line: In vitro antitumor/anticancer testing (CCK-8), SK-OV-3. The following applies: 48 h. The procedure:
(§1) Each of Tea Product 1 and Conventional Tea Product obtained in section A of this example was used to prepare test tea samples according to the method described below. A proper amount of the respective tea product was added into sterile water to prepare a stock solution with a concentration of 100 mg/mL, followed by using a membrane filter with a pore size of 0.22 μm to conduct vacuum filtration and sterilization. The resulting stock solution was diluted with a respective complete medium shown in Table 3 below to form test tea samples with different concentrations. In other words, the thus obtained test tea samples to be used for treating a respective cancer/tumor cell line shown in Table 3 were prepared using the same complete medium as that for the respective cancer/tumor cell line. […] Specifically, each of the aforesaid commercially available agents was subjected to the method described below to prepare comparative test samples. A proper amount of a respective commercially available agent was dissolved in phosphate-buffered saline (PBS) to prepare a stock solution with a concentration of 5 mg/mL, followed by using a membrane filter with a pore size of 0.22 μm to conduct vacuum filtration and sterilization. The resulting stock solution was diluted with a respective complete medium shown in Table 3 below to form comparative test samples with different concentrations. To be specific, the comparative test samples prepared from the respective commercially available agent have the concentrations shown in Table 2 below. The thus obtained comparative test samples to be used for treating a respective cancer/tumor cell line shown in Table 3 were prepared using the same complete medium as that for the respective cancer/tumor cell line. […] The cultivation of each cancer/tumor cell line is described as follows. […] Afterwards, a cell suspension having a cell density of 1.0×10^4 cells/mL was prepared. […] As experimental groups, the tumor/cancer cells of each cell line were treated with the test tea samples prepared from one or more of the tea products and the comparative test samples prepared from one or more of the commercially available agents as obtained in section B of this example (for more detailed information about the tea product(s) and the commercially available product (s) used to treat each cell line, please see Table 4 below). To be specific, 6 to 10 test tea samples prepared from the same tea product and having different concentrations, as well as 6 to 10 comparative test samples prepared from the same commercially available agent and having different concentrations, were utilized to treat the tumor/cancer cells of each cell line. For each experimental group, 6 repetitions of tumor/cancer treatment were performed. For the control group, 100 μL of PBS was added to a well containing the medium and the cancer/tumor cells of the respective cell line. For the blank group, 100 μL of PBS was added to a well containing a complete medium the same as that used for cultivation of the cancer/tumor cells of the respective cell line. After the treatment described above, cultivation was conducted in an incubator (37° C., 100% relative humidity, 5% CO2) for 48 hours. Subsequently, the liquid containing the medium and the sample in the well was removed, and a respective complete medium (shown in Table 3 above) containing 10% CCK-8 (Cell Counting Kit-8)(Dojindo Molecular Technologies, Inc., Cat. No. CK04-13) was added. Cultivation was performed in an incubator (37° C.) for 2 to 4 hours, followed by gently shaking.

Test [2] concerns human cervical cancer cell line Hela. Put plainly: In vitro antitumor/anticancer testing (CCK-8), Hela. The conditions noted are these: 48 h. How it is done: as §1
The test system of test [3] is human lung cancer cell line A549. Put plainly: In vitro antitumor/anticancer testing (CCK-8), A549. The following applies: 48 h. The procedure: as §1
Test [4] has as its system human glioblastoma cell line U-87MG. The experiment in a line: In vitro antitumor/anticancer testing (CCK-8), U-87MG. The following applies: 48 h. How it is done: as §1
The subject of test [5] is human leukemia cell line K562. Put plainly: In vitro antitumor/anticancer testing (CCK-8), K562. The following applies: 48 h, read-out: Percent growth inhibition. How it is done: Each of Tea Product 1 and Conventional Tea Product obtained in section A of this example was used to prepare test tea samples according to the method described below. A proper amount of the respective tea product was added into sterile water to prepare a stock solution with a concentration of 100 mg/mL, followed by using a membrane filter with a pore size of 0.22 μm to conduct vacuum filtration and sterilization. The resulting stock solution was diluted with a respective complete medium shown in Table 3 below to form test tea samples with different concentrations. In other words, the thus obtained test tea samples to be used for treating a respective cancer/tumor cell line shown in Table 3 were prepared using the same complete medium as that for the respective cancer/tumor cell line.
Specifically, each of the aforesaid commercially available agents was subjected to the method described below to prepare comparative test samples. A proper amount of a respective commercially available agent was dissolved in phosphate-buffered saline (PBS) to prepare a stock solution with a concentration of 5 mg/mL, followed by using a membrane filter with a pore size of 0.22 μm to conduct vacuum filtration and sterilization. The resulting stock solution was diluted with a respective complete medium shown in Table 3 below to form comparative test samples with different concentrations. To be specific, the comparative test samples prepared from the respective commercially available agent have the concentrations shown in Table 2 below. The thus obtained comparative test samples to be used for treating a respective cancer/tumor cell line shown in Table 3 were prepared using the same complete medium as that for the respective cancer/tumor cell line.
The cultivation of each cancer/tumor cell line is described as follows. […] Afterwards, a cell suspension having a cell density of 1.0×10^4 cells/mL was prepared.
As experimental groups, the tumor/cancer cells of each cell line were treated with the test tea samples prepared from one or more of the tea products and the comparative test samples prepared from one or more of the commercially available agents as obtained in section B of this example (for more detailed information about the tea product(s) and the commercially available product (s) used to treat each cell line, please see Table 4 below). To be specific, 6 to 10 test tea samples prepared from the same tea product and having different concentrations, as well as 6 to 10 comparative test samples prepared from the same commercially available agent and having different concentrations, were utilized to treat the tumor/cancer cells of each cell line. For each experimental group, 6 repetitions of tumor/cancer treatment were performed. For the control group, 100 μL of PBS was added to a well containing the medium and the cancer/tumor cells of the respective cell line. For the blank group, 100 μL of PBS was added to a well containing a complete medium the same as that used for cultivation of the cancer/tumor cells of the respective cell line.
After the treatment described above, cultivation was conducted in an incubator (37° C., 100% relative humidity, 5% CO2) for 48 hours. Subsequently, the liquid containing the medium and the sample in the well was removed, and a respective complete medium (shown in Table 3 above) containing 10% CCK-8 (Cell Counting Kit-8)(Dojindo Molecular Technologies, Inc., Cat. No. CK04-13) was added. Cultivation was performed in an incubator (37° C.) for 2 to 4 hours, followed by gently shaking.

Molecules are shown by their SMILES.

As to `N.N.[Cl][Pt][Cl]` [Cisplatin], the Percent growth inhibition turned out to be 5.63% in test [1] (0.0625 μg/mL); 6.86% in test [1] (0.125 μg/mL); 13.36% in test [1] (0.25 μg/mL); 28.16% in test [1] (0.5 μg/mL); 51.92% in test [1] (1 μg/mL); 65.87% in test [1] (2 μg/mL). For the same compound, the Percent growth inhibition in test [1] (4 μg/mL) was 81.38%; in test [1] (8 μg/mL) it was 88.36%; in test [1] (16 μg/mL) it was 83.65%; in test [2] (0.0625 μg/mL) it was −3.05%; in test [2] (0.125 μg/mL), −7.31%; in test [2] (0.25 μg/mL), −11.93%. Also, the Percent growth inhibition is −33.69% in test [2] (0.5 μg/mL); −29.75% in test [2] (1 μg/mL); 16.62% in test [2] (2 μg/mL); 90.1% in test [2] (4 μg/mL); 98.3% in test [2] (8 μg/mL); 98.98% in test [2] (16 μg/mL). Moreover, the Percent growth inhibition in test [3] (0.125 μg/mL) was 6.73%; in test [3] (0.25 μg/mL), 8.55%; in test [3] (0.5 μg/mL), 14.21%; in test [3] (1 μg/mL) it was 29.60%; in test [3] (3 μg/mL) it was 88.98%; in test [3] (4 μg/mL) it was 57.57%. Besides, the Percent growth inhibition was 36.60% in test [3] (7 μg/mL); 97.45% in test [3] (16 μg/mL); 2.27% in test [4] (0.0625 μg/mL); 1.91% in test [4] (0.125 μg/mL); 0.10% in test [4] (0.25 μg/mL); 2.72% in test [4] (0.5 μg/mL). Besides, the Percent growth inhibition in test [4] (1 μg/mL) was found to be 20.84%; in test [4] (2 μg/mL), 43.00%; in test [4] (4 μg/mL) it was 63.60%; in test [4] (8 μg/mL), 85.10%; in test [4] (16 μg/mL) it was 76.01%. The IC50 result in test [1] (SK-OV-3) is reported as “IC50 (μg/mL) = 1.112”; in test [2] (Hela), “IC50 (μg/mL) = 2.656”; in test [3] (A549), “IC50 (μg/mL) = 2.503”; in test [4] (U-87MG), “IC50 (μg/mL) = 2.751”.
`Cc1ccc(NC(=O)c2ccc(CN3CCN(C)CC3)cc2)cc1Nc1nccc(-c2cccnc2)n1` [Glivec]: in test [5] (0.0184 μg/mL), the inhibition at 0.0184 µg/mL worked out at 17.7%. In addition, the inhibition at 0.0369 µg/mL in test [5] (0.0369 μg/mL) was determined as 35.7%. The inhibition at 0.0737 µg/mL in test [5] (0.0737 μg/mL) amounted to 55.3%. The inhibition at 0.1474 µg/mL in test [5] (0.1474 μg/mL) is 66.2%. In addition, the inhibition at 0.2949 µg/mL in test [5] (0.2949 μg/mL) came out at 81.5%. Moreover, in test [5] (0.5897 μg/mL), the inhibition at 0.5897 µg/mL was 88.9%.
